From patent publication US20150105429A1, “BENZYL SULFONAMIDE DERIVATIVES AS RORC MODULATORS” (Genentech, Inc., priority 2011, published 2015)

target: T1, RORc ligand binding domain (Homo sapiens, UniProt P51449); experiment: In Vitro RORc Ligand Binding Assay; settings: radioligand 25-[3H]hydroxycholesterol 6 nM; 0.6 ug/mL RORc receptor; 3 h at 25° C.; read-out: IC50 values (micromolar) for RORc affinity
T1 construct: host or cells: E. coli
T1 sequence (P51449 269-508 limits assumed): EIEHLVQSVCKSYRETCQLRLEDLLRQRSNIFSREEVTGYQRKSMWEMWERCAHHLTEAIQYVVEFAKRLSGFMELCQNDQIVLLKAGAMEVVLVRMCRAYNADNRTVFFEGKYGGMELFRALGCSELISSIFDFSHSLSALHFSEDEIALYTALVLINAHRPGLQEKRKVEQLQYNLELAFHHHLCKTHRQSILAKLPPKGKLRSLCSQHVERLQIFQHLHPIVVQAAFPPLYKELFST
Description: This assay was used to determine a compound's potency in inhibiting activity of RORc by determining, Kiapp, IC50, or percent inhibition values.
On day of the assay, 100 uL of 0.05% CHAPS (in deionized H2O) was added to all wells of the GFB Unifilter plate and allowed soak for 1 h. A wash buffer of 50 mM HEPES (pH 7.4), 150 mM NaCl, and 5 mM MgCl2 was prepared to wash the filter plate. To prepare an assay buffer, BSA was added to the wash buffer to reach 0.01% and DTT was added to reach 1 mM.
The 20× compound stocks were diluted in DMSO with Assay Buffer 4-fold to reach 5× the final test concentration in 25% DMSO (10 uL compound+30 uL Assay Buffer). Solutions were mixed by aspiration several times with a pipette set on 50 uL volume. For the assay, 10 uL of 5× compound stock solutions in 25% DMSO were added to the assay plate in duplicate.
For two point screening, 10 mM stock compound solutions were diluted in DMSO to obtain 200 uM (20× the high test concentration) and then diluted 10-fold further to reach 20 uM (20× the low test concentration). The 20× stocks were diluted 4-fold with Assay Buffer (10 uL compound+30 uL Assay Buffer) to reach 5× the test concentrations (50 uM and 5 uM) and 10 uL were added to two assay plates for the duplicate wells. With each concentration tested on 2 plates, each set of 80 compounds used 4 assay plates (1 uM and 10 uM, with n=2).
For 25-hydroxycholesterol in 25% DMSO/75% Assay Buffer; 10 uL per well was used for NSB samples. Wells for Total Binding and No Receptor sample determination contained 10 uL of 25% DMSO/75% Assay Buffer per well.
Radioligand (25-[^3H]hydroxycholesterol) Preparation
Added 20 uL to all wells to reach 6 nM final in the assay.
Stock receptor solution was diluted in assay buffer to obtain 1.5 ug/mL in Assay Buffer. 20 uL was added to all wells. For No R samples, 20 uL Assay Buffer was substituted for receptor solution.
Assay plates were 96-well polypropylene V-bottom plates. 10 uL of 5× compound in 25% DMSO/75% Assay Buffer was added to Test wells. 10 uL of 25% DMSO/75% Assay Buffer was added to Total Binding or No Receptor wells. 10 uL of 5 uM 25-hydroxycholesterol in 25% DMSO/75% Assay Buffer was added to NSB wells. […] 20 uL of 1.5 ug/mL RORc receptor was added to wells (or 40 uL Assay Buffer to No R wells). Following addition to the wells, the plates were incubated 3 h at 25° C.
Using a Packard Filtermate Harvester, the filter plates were washed 4 times following transfer of the incubated samples. Plates were dry-filtered completely (2 h at 50° C. or overnight at room temperature). 50 uL Microscint 0 was added to all wells and read on Topcount protocol Inverted.
Final concentrations were as follows: 50 mM HEPES buffer (pH 7.4); 150 mM NaCl; 1 mM DTT; 5 mM MgCl2; 0.01% BSA; 5% DMSO; 0.6 ug/mL RORc receptor; 6 nM 25-[^3H]hydroxycholesterol. For NSB wells, 1 uM 25-hydroxycholesterol was also present.

Compound | IC50
CC(C)CN(Cc1ccc(-c2cncc(C#N)c2)s1)S(=O)(=O)Cc1ccccc1 [Compound 50, N-[5-(5-Cyano-pyridin-3-yl)-thiophen-2-ylmethyl]-N-isobutyl-C-phenyl-methanesulfonamide] | 3.1 µM
CNS(=O)(=O)c1ccc(-c2ccc(CN(CC(C)C)S(=O)(=O)Cc3ccccc3)cc2)cc1 [Compound 9, 4′-[(Isobutyl-phenylmethanesulfonyl-amino)-methyl]-biphenyl-4-sulfonic acid methylamide] | 0.065 µM
CC(C)CN(Cc1ccc(-c2cccc(S(C)(=O)=O)c2)s1)S(=O)(=O)c1ccccc1C#N [Compound 27, 2-Cyano-N-isobutyl-N-[5-(3-methanesulfonyl-phenyl)-thiophen-2-ylmethyl]-benzenesulfonamide] | 3.7 µM
CC(C)CN([C@H](C)c1ccc(-c2ccc(NS(C)(=O)=O)cc2)cc1)S(=O)(=O)Cc1ccccc1 [Compound 15, N-Isobutyl-N-[(R)-1-(4′-methanesulfonylamino-biphenyl-4-yl)-ethyl]-C-phenyl-methanesulfonamide] | 0.696 µM
Cc1nn(C)c(C)c1-c1ccc(CN(CC(C)C)S(=O)(=O)Cc2ccccc2)cc1 [Compound 3, N-Isobutyl-C-phenyl-N-[4-(1,3,5-trimethyl-1H-pyrazol-4-yl)-benzyl]-methanesulfonamide] | 1.7 µM
Cc1n[nH]c(C)c1S(=O)(=O)N(Cc1ccc(-c2cccc(S(C)(=O)=O)c2)s1)CC(C)C [Compound 32, 3,5-Dimethyl-1H-pyrazole-4-sulfonic acid isobutyl-[5-(3-methanesulfonyl-phenyl)-thiophen-2-ylmethyl]-amide] | 2.5 µM
CC(C)CN([C@@H](C)c1ccc(-c2ccc(NS(C)(=O)=O)cc2)cc1)S(=O)(=O)Cc1ccccc1 [Compound 20, N-Isobutyl-N-[(S)-1-(4′-methanesulfonylamino-biphenyl-4-yl)-ethyl]-C-phenyl-methanesulfonamide] | 0.251 µM
CC(C)CN(Cc1ccc(-c2cccc(S(C)(=O)=O)c2)s1)S(=O)(=O)Cc1cccc(F)c1 [Compound 31, C-(3-Fluoro-phenyl)-N-isobutyl-N-[5-(3-methanesulfonyl-phenyl)-thiophen-2-ylmethyl]-methanesulfonamide] | 1.3 µM

Second part, the molecule after the results:

IC50 | Compound
0.019 µM | CC(C)CN(Cc1ccc(-c2ccc(S(C)(=O)=O)cc2)cc1F)S(=O)(=O)Cc1ccccc1 [Compound 22, N-(3-Fluoro-4′-methanesulfonyl-biphenyl-4-ylmethyl)-N-isobutyl-C-phenyl-methanesulfonamide]
0.282 µM | O=S(=O)(Cc1ccccc1)N(Cc1ccc(-c2ccncc2)cc1F)CC(F)(F)F [Compound 23, N-(2-Fluoro-4-pyridin-4-yl-benzyl)-C-phenyl-N-(2,2,2-trifluoro-ethyl)-methanesulfonamide]
0.057 µM | Cc1cc(-c2ccc(S(C)(=O)=O)cc2)ccc1CN(CC(C)C)S(=O)(=O)Cc1ccccc1 [Compound 25, N-Isobutyl-N-(4′-methanesulfonyl-3-methyl-biphenyl-4-ylmethyl)-C-phenyl-methanesulfonamide]
1.2 µM | CC(C)CN(Cc1ccc(-c2ccnc(N)c2)s1)S(=O)(=O)Cc1ccccc1 [Compound 46, N-[5-(2-Amino-pyridin-4-yl)-thiophen-2-ylmethyl]-N-isobutyl-C-phenyl-methanesulfonamide]
2 µM | CC(C)CN(Cc1ccc(-c2ccc(S(C)(=O)=O)cc2)cn1)S(=O)(=O)Cc1ccccc1 [Compound 65, N-isobutyl-N-((5-(4-(methylsulfonyl)phenyl)pyridin-2-yl)methyl)-1-phenylmethanesulfonamide]
3.1 µM | CCN(Cc1ccc(-c2ccc(S(C)(=O)=O)cc2)s1)S(=O)(=O)Cc1ccccc1 [Compound 58, N-Ethyl-N-[5-(4-methanesulfonyl-phenyl)-thiophen-2-ylmethyl]-C-phenyl-methanesulfonamide]
2 µM | CC(C)CN(Cc1ncc(-c2ccc(S(C)(=O)=O)c(F)c2)s1)S(=O)(=O)Cc1ccccc1 [Compound 64, N-((5-(3-fluoro-4-(methylsulfonyl)phenyl)thiazol-2-yl)methyl)-N-isobutyl-1-phenylmethanesulfonamide]
